molecular target: GCN2 kinase (Homo sapiens, UniProt Q9P2K8); experiment: GCN2 enzyme inhibition assay (Transcreener ADP2 fluorescence polarization); type: biochemical; settings: Enzyme activity for compounds of Formula IV; Ki(app), 280 μM ATP, 25° C.
Protocol: Compounds were screened for their ability to inhibit GCN2 kinase activity using a Transcreener® ADP^2 fluorescence polarization assay that detects ADP levels (BellBrook Labs, WI). Assays were carried out in a buffer consisting of 25 mM Tris-HCl (pH 7.5), 50 mM NaCl, 10 mM MgCl2 and 1 mM DTT. Final substrate concentrations were 280 μM ATP and 200 μM peptidic substrate ([…]-OH [(RS)7], Bachem, Switzerland). Assays were carried out at 25° C. in the presence of a (typical) final concentration of 4 nM GCN2 kinase. An assay buffer containing GCN2 kinase and (RS)7 was prepared. 4.7 μL of this stock solution was placed per well of a black, low volume, 384-well microtitre plate (e.g. catalogue number 3676, Corning Inc., NY). To this was added […] of DMSO containing serial dilutions of the test compound (typical final concentrations of test compound were 0 to 8 μM). The plate was incubated for 10 minutes at 25° C. prior to the addition of 4.7 μL of ATP stock buffer to initiate the enzyme reaction. The reaction was allowed to proceed for 1 hour at 25° C., prior to the addition of 10 μL detection buffer (consisting of appropriate concentrations of ADP^2 antibody and ADP Alexa633 tracer in 1× stop and detect buffer as supplied by BellBrook Labs). […] Percentage inhibition of enzyme activity was then calculated at each compound dose. IC50 and Ki(app) (using known assay and kinetic parameters) values were calculated from percentage inhibition data using a non-linear, tight-binding algorithm. All data analysis was undertaken using the Screener® software package (Genedata, Switzerland).

GCN2 kinase, sequence (Q9P2K8 whole entry): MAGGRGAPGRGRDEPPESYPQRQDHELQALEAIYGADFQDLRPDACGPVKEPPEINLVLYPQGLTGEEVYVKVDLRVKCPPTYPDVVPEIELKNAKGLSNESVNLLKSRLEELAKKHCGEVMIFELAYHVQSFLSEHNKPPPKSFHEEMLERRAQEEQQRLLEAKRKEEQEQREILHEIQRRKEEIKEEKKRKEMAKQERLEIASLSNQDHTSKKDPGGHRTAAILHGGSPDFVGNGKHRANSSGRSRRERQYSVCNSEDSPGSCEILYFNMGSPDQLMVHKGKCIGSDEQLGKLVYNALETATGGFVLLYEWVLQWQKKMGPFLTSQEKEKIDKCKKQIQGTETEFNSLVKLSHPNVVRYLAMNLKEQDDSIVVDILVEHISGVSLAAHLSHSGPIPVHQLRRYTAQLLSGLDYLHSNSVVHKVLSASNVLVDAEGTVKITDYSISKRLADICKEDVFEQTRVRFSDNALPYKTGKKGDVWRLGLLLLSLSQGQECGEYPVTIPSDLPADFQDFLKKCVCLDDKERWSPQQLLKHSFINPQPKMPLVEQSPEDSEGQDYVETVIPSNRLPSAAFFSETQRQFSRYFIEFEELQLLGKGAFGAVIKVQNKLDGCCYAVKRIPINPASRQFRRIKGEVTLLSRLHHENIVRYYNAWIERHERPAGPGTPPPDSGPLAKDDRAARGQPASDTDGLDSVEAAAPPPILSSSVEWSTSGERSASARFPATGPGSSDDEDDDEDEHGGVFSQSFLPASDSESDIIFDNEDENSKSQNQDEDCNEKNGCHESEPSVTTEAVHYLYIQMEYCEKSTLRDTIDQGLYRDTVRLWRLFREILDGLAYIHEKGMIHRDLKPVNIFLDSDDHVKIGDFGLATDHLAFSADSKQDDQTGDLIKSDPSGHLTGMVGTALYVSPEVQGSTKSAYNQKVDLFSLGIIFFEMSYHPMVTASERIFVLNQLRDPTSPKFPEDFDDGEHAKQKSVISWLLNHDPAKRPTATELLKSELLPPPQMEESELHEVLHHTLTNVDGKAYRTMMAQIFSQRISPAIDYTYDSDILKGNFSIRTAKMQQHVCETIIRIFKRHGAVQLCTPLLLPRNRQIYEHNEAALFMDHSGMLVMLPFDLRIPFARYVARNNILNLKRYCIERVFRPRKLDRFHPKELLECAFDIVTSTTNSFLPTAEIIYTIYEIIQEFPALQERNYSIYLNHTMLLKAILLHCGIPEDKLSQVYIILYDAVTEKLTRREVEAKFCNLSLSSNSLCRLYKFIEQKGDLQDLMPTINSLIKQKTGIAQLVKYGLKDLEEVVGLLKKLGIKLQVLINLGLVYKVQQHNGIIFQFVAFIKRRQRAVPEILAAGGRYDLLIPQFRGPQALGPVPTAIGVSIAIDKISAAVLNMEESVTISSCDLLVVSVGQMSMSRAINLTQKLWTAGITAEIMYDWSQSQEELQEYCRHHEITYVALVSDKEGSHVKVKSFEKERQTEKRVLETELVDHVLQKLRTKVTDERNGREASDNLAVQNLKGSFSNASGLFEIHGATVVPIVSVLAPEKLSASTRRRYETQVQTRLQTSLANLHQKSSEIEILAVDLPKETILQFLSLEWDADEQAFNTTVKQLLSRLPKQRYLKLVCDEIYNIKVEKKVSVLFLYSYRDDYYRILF

| Ki | Compound |
| --- | --- |
| 100 to 1000 nM | CC1CC(CS(C)(=N)=O)C(C)N(c2ccnc(-c3cnc4cnc(C(F)F)cn34)n2)C1 (single isomer, unassigned) [IV-367, ((1-(2-(6-(Difluoromethyl)imidazo[1,2-a]pyrazin-3-yl)pyrimidin-4-yl)-2,5-dimethylpiperidin-3-yl)methyl)(imino)(methyl)-λ^6-sulfanone] |
| 10 to 100 nM | O=C1CCCC2CN(c3ccnc(-c4cnc5cnc(Cl)cn45)n3)CCN12 (stereo not drawn) [IV-286, 2-(2-(6-Chloroimidazo[1,2-a]pyrazin-3-yl)pyrimidin-4-yl)octahydro-6H-pyrido[1,2-c]pyrazin-6-one] |
| 10 to 100 nM | CC(=O)N1CCN(c2ccnc(-c3cnc4cnc(-c5ccncc5)cn34)n2)CC1 [IV-285, 1-(4-(2-(6-(Pyridin-4-yl)imidazo[1,2-a]pyrazin-3-yl)pyrimidin-4-yl)piperazin-1-yl)ethan-1-one] |
| 100 to 1000 nM | NC(C1CCCN(c2ccnc(-c3cnc4cnc(C(F)(F)F)cn34)n2)C1)C(F)(F)F (stereo not drawn) [IV-502, 2,2,2-Trifluoro-1-(1-(2-(6-(trifluoromethyl)imidazo[1,2-a]pyrazin-3-yl)pyrimidin-4-yl)piperidin-3-yl)ethan-1-amine] |
| 10 to 100 nM | NC(=O)c1cn2c(-c3cccc(N4CCC(O)CC4)n3)cnc2cn1 [IV-219, 3-(6-(4-Hydroxypiperidin-1-yl)pyridin-2-yl)imidazo[1,2-a]pyrazine-6-carboxamide] |
| 100 to 1000 nM | C[C@@H]1CN(c2ccnc(-c3cnc4cnc(C(F)(F)F)cn34)n2)C[C@H](c2cncn2C)N1 (racemic) [IV-672, Cis-3-(4-(3-Methyl-5-(1-methyl-1H-imidazol-5-yl)piperazin-1-yl)pyrimidin-2-yl)-6-(trifluoromethyl)imidazo[1,2-a]pyrazine] |
| 100 to 1000 nM | NC(=O)c1cn2c(-c3nccc(N4CCN5C(=O)CCCC5C4)n3)cnc2cn1 (single isomer, unassigned) [IV-273, 3-(4-(6-Oxooctahydro-2H-pyrido[1,2-a]pyrazin-2-yl)pyrimidin-2-yl)imidazo[1,2-a]pyrazine-6-carboxamide] |
| 10 to 100 nM | C[C@H]1CCCCN1c1ccnc(-c2cnc3cnc(C(F)(F)F)cn23)n1 (single isomer, unassigned) [IV-597] |
| 100 to 1000 nM | FC(F)(F)c1cn2c(-c3nccc(N4CCC(c5ccncc5)C4)n3)cnc2cn1 (stereo not drawn) [IV-550, 3-(4-(3-(Pyridin-4-yl)pyrrolidin-1-yl)pyrimidin-2-yl)-6-(trifluoromethyl)imidazo[1,2-a]pyrazine] |
| 100 to 1000 nM | CC1(C)COCCN1c1ccnc(-c2cnc3cnc(C(F)(F)F)cn23)n1 [IV-532, 3,3-Dimethyl-4-(2-(6-(trifluoromethyl)imidazo[1,2-a]pyrazin-3-yl)pyrimidin-4-yl)morpholine] |
| 100 to 1000 nM | COCC1CN(c2ccnc(-c3cnc4cnc(C(F)(F)F)cn34)n2)CC(C)O1 (stereo not drawn) [IV-586, 2-(Methoxymethyl)-6-methyl-4-(2-(6-(trifluoromethyl)imidazo[1,2-a]pyrazin-3-yl)pyrimidin-4-yl)morpholine] |
| 100 to 1000 nM | O=C(Nc1cn[nH]c1)[C@H]1CCCN(c2ccnc(-c3cnc4cnc(C(F)(F)F)cn34)n2)C1 [IV-721] |
| 100 to 1000 nM | N#CC1CCCN(c2ccnc(-c3cnc4cnc(C(F)(F)F)cn34)n2)C1 (stereo not drawn) [IV-516, 1-(2-(6-(Trifluoromethyl)imidazo[1,2-a]pyrazin-3-yl)pyrimidin-4-yl)piperidine-3-carbonitrile] |
| > 1000 nM | O=C(N[C@H]1CCCN(c2ccnc(-c3cnc4cnc(C(F)(F)F)cn34)n2)C1)c1cccnc1F [IV-734] |
| 100 to 1000 nM | FC(F)(F)c1cn2c(-c3nccc(N4CCCC5(CCOCC5)C4)n3)cnc2cn1 [IV-505, 2-(2-(6-(Trifluoromethyl)imidazo[1,2-a]pyrazin-3-yl)pyrimidin-4-yl)-9-oxa-2-azaspiro[5.5]undecane] |
| 100 to 1000 nM | CC1CN(c2ccnc(-c3cnc4cnc(C(F)(F)F)cn34)n2)C(C)C(c2cnc[nH]2)N1 (single isomer, unassigned) [IV-549, 3-(4-(3-(1H-Imidazol-5-yl)-2,5-dimethylpiperazin-1-yl)pyrimidin-2-yl)-6-(trifluoromethyl)imidazo[1,2-a]pyrazine] |
| 100 to 1000 nM | FC(F)(F)c1cn2c(-c3nccc(N4CCC(c5cc[nH]n5)C4)n3)cnc2cn1 (stereo not drawn) [IV-457, 3-(4-(3-(1H-Pyrazol-3-yl)pyrrolidin-1-yl)pyrimidin-2-yl)-6-(trifluoromethyl)imidazo[1,2-a]pyrazine] |
| 100 to 1000 nM | FC(F)(F)c1cn2c(-c3nccc(N4CCCC4Cc4ccccc4)n3)cnc2cn1 (stereo not drawn) [IV-561, 3-(4-(2-Benzylpyrrolidin-1-yl)pyrimidin-2-yl)-6-(trifluoromethyl)imidazo[1,2-a]pyrazine] |
| 100 to 1000 nM | FC(F)(F)c1cn2c(-c3nccc(N4CCCC(c5nnc[nH]5)C4)n3)cnc2cn1 (stereo not drawn) [IV-326, 3-(4-(3-(4H-1,2,4-Triazol-3-yl)piperidin-1-yl)pyrimidin-2-yl)-6-(trifluoromethyl)imidazo[1,2-a]pyrazine] |
| 10 to 100 nM | NC(=O)c1cn2c(-c3nccc(N4CCC5(CCCO5)CC4)n3)cnc2cn1 [IV-269, 3-(4-(1-Oxa-8-azaspiro[4.5]decan-8-yl)pyrimidin-2-yl)imidazo[1,2-a]pyrazine-6-carboxamide] |
| 100 to 1000 nM | FC(F)(F)c1cn2c(-c3nccc(N4CCCC(c5nn[nH]n5)C4)n3)cnc2cn1 (stereo not drawn) [IV-331, 3-(4-(3-(2H-Tetrazol-5-yl)piperidin-1-yl)pyrimidin-2-yl)-6-(trifluoromethyl)imidazo[1,2-a]pyrazine] |
| > 1000 nM | O=C(N[C@H]1CCCN(c2ccnc(-c3cnc4cnc(C(F)(F)F)cn34)n2)C1)c1ccn(C2CC2)n1 [IV-742] |
| 10 to 100 nM | NC(=O)c1cn2c(-c3nccc(N4CCN(C(=O)C5CC5)CC4)n3)cnc2cn1 [IV-277, 3-(4-(4-(Cyclopropanecarbonyl)piperazin-1-yl)pyrimidin-2-yl)imidazo[1,2-a]pyrazine-6-carboxamide] |

same assay, conditions: compounds of Formula II; 280 μM ATP, 4 nM GCN2 kinase

| Ki | IC50 | Compound |
| --- | --- | --- |
| 10 to 1000 nM |  | CC1CC(N=S(C)(=O)C2CC2)CN(c2cc(-c3cnc4ccc(C(F)F)nn34)ncn2)C1 (single isomer, unassigned) [II-645, Cyclopropyl((1-(6-(6-(difluoromethyl)imidazo[1,2-b]pyridazin-3-yl)pyrimidin-4-yl)-5-methylpiperidin-3-yl)imino)(methyl)-λ^6-sulfanone] |
|  | 10 to 1000 nM | C[C@@H]1C[C@H](N=S(C)(C)=O)CN(c2cc(-c3cnc4ccc(N5CC(F)C5)nn34)ncn2)C1 [II-764, (((3S,5R)-1-(6-(6-(3-fluoroazetidin-1-yl)imidazo[1,2-b]pyridazin-3-yl)pyrimidin-4-yl)-5-methylpiperidin-3-yl)imino)dimethyl-16-sulfanone] |
| 10 to 1000 nM |  | CS(=N)(=O)c1cccc(-c2cc(-c3cnc4ccc(C(F)F)nn34)ncn2)c1 (stereo not drawn) [II-580, (3-(6-(6-(Difluoromethyl)imidazo[1,2-b]pyridazin-3-yl)pyrimidin-4-yl)phenyl)(imino)(methyl)-λ^6-sulfanone] |
| 10 to 1000 nM |  | CC1C(NS(C)(=O)=O)CCCN1c1cc(-c2cnc3ccc(C(F)F)nn23)ncn1 (stereo not drawn) [II-603, N-(1-(6-(6-(Difluoromethyl)imidazo[1,2-b]pyridazin-3-yl)pyrimidin-4-yl)-2-methylpiperidin-3-yl)methanesulfonamide] |
| 10 to 1000 nM |  | N#CCC1CN(c2cc(-c3cnc4ccc(C(F)F)nn34)ncn2)CCO1 (single isomer, unassigned) [II-565, 2-(4-(6-(6-(Difluoromethyl)imidazo[1,2-b]pyridazin-3-yl)pyrimidin-4-yl)morpholin-2-yl)acetonitrile] |
| 10 to 1000 nM |  | N#CCC1CN(c2cc(-c3cnc4ccc(C(F)(F)F)nn34)ncn2)CCO1 (stereo not drawn) [II-513, 2-(4-(6-(6-(Trifluoromethyl)imidazo[1,2-b]pyridazin-3-yl)pyrimidin-4-yl)morpholin-2-yl)acetonitrile] |
| 10 to 1000 nM |  | CC1C(CO)N(C(C)(C)C)CCN1c1cc(-c2cnc3ccc(C(F)F)nn23)ncn1 (stereo not drawn) [II-556, (1-(tert-Butyl)-4-(6-(6-(difluoromethyl)imidazo[1,2-b]pyridazin-3-yl)pyrimidin-4-yl)-3-methylpiperazin-2-yl)methanol] |
| 10 to 1000 nM |  | CC1C(CNS(C)(=O)=O)C(F)(F)C(C)CN1c1cc(-c2cnc3ccc(C(F)F)nn23)ncn1 (single isomer, unassigned) [II-468, N-((1-(6-(6-(Difluoromethyl)imidazo[1,2-b]pyridazin-3-yl)pyrimidin-4-yl)-4,4-difluoro-2,5-dimethylpiperidin-3-yl)methyl)methanesulfonamide] |
| 10 to 1000 nM |  | CC1CC(CO)C(C)N(c2cc(-c3cnc4ccc(C(F)F)nn34)ncn2)C1 (single isomer, unassigned) [II-586, (1-(6-(6-(Difluoromethyl)imidazo[1,2-b]pyridazin-3-yl)pyrimidin-4-yl)-2,5-dimethylpiperidin-3-yl)methanol] |

same assay, conditions: compounds of Formula IV; 280 μM ATP, 4 nM GCN2 kinase

| IC50 | Compound |
| --- | --- |
| 10 to 1000 nM | C[C@H]1[C@@H](c2cn[nH]c2)N(C(=O)c2cnoc2)[C@@H](C)CN1c1ccnc(-c2cnc3cnc(C(F)(F)F)cn23)n1 [IV-779, ((2R,3S,6S)-3,6-dimethyl-2-(1H-pyrazol-4-yl)-4-(2-(6-(trifluoromethyl)imidazo[1,2-a]pyrazin-3-yl)pyrimidin-4-yl)piperazin-1-yl)(isoxazol-4-yl)methanone] |
